Reference: ChEMBL document CHEMBL4390652, “Design, biological evaluation and X-ray crystallography of nanomolar multifunctional ligands targeting simultaneously acetylcholinesterase and glycogen synthase kinase-3” (Eur J Med Chem, 2019)

Legend:
Caco-2 = assay: Cytotoxicity against human Caco2 cells assessed as growth inhibition incubated for 48 hrs by Hoechst 33342 staining based assay; assay type: cell-based; conditions: Caco-2, 48 h
[1] = system: Tyrosine-protein kinase ABL1 (Homo sapiens), P00519 [F317I]; assay: Binding affinity to human non-phosphorylated ABL1 F317I mutant (S229 to K512 residues) expressed in mammalian expression system assessed as residual binding level at 10 uM by Kinomescan method relative to control
[2] = system: Tyrosine-protein kinase ABL1 (Homo sapiens), P00519 [F317I]; assay: Binding affinity to human phosphorylated ABL1 F317I mutant (S229 to K512 residues) expressed in mammalian expression system assessed as residual binding level at 10 uM by Kinomescan method relative to control
[3] = system: Tyrosine-protein kinase ABL1 (Homo sapiens), P00519 [F317L]; assay: Binding affinity to human non-phosphorylated ABL1 F317L mutant (S229 to K512 residues) expressed in mammalian expression system assessed as residual binding level at 10 uM by Kinomescan method relative to control
[4] = system: Tyrosine-protein kinase ABL1 (Homo sapiens), P00519 [H396P]; assay: Binding affinity to human phosphorylated ABL1 H396P mutant (S229 to K512 residues) expressed in mammalian expression system assessed as residual binding level at 10 uM by Kinomescan method relative to control
[5] = molecular target: Serine/threonine-protein kinase BRSK1 (Homo sapiens) (UniProt Q8TDC3); assay: Binding affinity to wild-type human partial length BRSK1 (M1 to E754 residues) expressed in bacterial expression system assessed as residual binding level at 10 uM by Kinomescan method relative to control
[6] = molecular target: CDK4/Cyclin D3 (Homo sapiens) (UniProt P11802+P30281); assay: Binding affinity to wild-type human full length CDK4/cyclinD3 (M1 to E303 residues) expressed in mammalian expression system assessed as residual binding level at 10 uM by Kinomescan method relative to control
[7] = molecular target: Cyclin-dependent kinase-like 2 (Homo sapiens) (UniProt Q92772); assay: Binding affinity to wild-type human partial length CDKL2 (M1 to D327 residues) expressed in bacterial expression system assessed as residual binding level at 10 uM by Kinomescan method relative to control
Sequence of Cyclin-dependent kinase-like 2 (Homo sapiens) (Q92772 whole entry, the tested form may be a part): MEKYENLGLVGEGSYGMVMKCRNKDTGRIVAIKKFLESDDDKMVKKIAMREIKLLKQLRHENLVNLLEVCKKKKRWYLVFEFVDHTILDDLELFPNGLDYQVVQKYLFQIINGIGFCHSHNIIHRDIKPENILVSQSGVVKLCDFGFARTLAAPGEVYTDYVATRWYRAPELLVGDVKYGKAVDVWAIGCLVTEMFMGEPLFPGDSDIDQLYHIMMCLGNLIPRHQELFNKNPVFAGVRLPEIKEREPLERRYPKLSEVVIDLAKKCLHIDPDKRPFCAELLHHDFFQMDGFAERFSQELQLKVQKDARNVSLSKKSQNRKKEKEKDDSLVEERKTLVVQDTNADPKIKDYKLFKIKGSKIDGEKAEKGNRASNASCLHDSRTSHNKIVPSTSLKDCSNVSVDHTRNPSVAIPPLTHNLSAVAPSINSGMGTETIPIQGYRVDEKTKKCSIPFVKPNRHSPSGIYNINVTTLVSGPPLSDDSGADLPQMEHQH

[8] = system: Epidermal growth factor receptor (Homo sapiens), P00533 [UNDEFINED MUTATION]; assay: Binding affinity to human partial length EGFR L747-S752del/P753S mutant expressed in bacterial expression system assessed as residual binding level at 10 uM by Kinomescan method relative to control
[9] = molecular target: Ephrin type-A receptor 7 (Homo sapiens) (UniProt Q15375); assay: Binding affinity to wild-type human partial length EPHA7 (Y608 to S912 residues) expressed in bacterial expression system assessed as residual binding level at 10 uM by Kinomescan method relative to control
Sequence of Ephrin type-A receptor 7 (Homo sapiens) (Q15375 28-998 limits assumed): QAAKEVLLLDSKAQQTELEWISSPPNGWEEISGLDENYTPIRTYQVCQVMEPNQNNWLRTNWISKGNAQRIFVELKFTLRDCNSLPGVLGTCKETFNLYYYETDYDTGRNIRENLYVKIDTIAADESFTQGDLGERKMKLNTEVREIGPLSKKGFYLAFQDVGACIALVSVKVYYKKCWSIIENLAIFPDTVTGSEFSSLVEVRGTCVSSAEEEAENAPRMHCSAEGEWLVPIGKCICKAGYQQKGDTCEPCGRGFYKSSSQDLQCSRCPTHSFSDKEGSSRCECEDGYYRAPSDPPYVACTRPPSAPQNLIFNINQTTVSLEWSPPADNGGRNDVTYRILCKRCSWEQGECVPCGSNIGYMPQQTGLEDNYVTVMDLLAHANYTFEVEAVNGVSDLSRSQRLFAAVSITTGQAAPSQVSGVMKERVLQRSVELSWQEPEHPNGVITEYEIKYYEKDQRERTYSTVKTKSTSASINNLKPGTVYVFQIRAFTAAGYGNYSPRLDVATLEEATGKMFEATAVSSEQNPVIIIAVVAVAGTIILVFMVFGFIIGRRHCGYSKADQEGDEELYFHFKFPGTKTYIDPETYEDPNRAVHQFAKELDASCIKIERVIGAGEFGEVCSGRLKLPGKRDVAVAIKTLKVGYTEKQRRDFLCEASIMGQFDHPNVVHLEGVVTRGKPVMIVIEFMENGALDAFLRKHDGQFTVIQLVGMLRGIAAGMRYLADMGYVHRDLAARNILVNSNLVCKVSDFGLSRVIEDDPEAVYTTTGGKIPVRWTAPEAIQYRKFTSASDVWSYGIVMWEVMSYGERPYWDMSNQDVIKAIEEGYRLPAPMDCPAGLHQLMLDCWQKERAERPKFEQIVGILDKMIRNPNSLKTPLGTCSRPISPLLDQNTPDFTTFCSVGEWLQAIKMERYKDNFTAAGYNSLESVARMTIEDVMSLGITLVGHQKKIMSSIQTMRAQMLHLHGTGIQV

[10] = molecular target: Ephrin type-B receptor 1 (Homo sapiens) (UniProt P54762); assay: Binding affinity to wild-type human partial length EPHB1 (P589 to T911 residues) expressed in bacterial expression system assessed as residual binding level at 10 uM by Kinomescan method relative to control
[11] = molecular target: Mitogen-activated protein kinase 3 (Homo sapiens) (UniProt P27361); assay: Binding affinity to wild-type human full length ERK1 (M1 to P379 residues) expressed in bacterial expression system assessed as residual binding level at 10 uM by Kinomescan method relative to control
Sequence of Mitogen-activated protein kinase 3 (Homo sapiens) (P27361 whole entry, the tested form may be a part): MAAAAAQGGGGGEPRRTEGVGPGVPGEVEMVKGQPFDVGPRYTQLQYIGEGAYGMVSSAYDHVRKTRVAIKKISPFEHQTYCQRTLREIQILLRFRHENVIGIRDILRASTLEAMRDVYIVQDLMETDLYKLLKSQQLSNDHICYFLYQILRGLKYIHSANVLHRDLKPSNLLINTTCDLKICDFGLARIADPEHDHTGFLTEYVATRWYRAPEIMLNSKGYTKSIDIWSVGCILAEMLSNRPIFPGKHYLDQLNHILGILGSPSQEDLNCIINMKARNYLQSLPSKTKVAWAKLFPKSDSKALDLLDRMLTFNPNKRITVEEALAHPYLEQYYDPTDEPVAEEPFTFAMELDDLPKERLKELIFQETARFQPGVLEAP

[12] = molecular target: Vascular endothelial growth factor receptor 1 (Homo sapiens) (UniProt P17948); assay: Binding affinity to wild-type human partial length FLT1 (R781 to F1239 residues) expressed in bacterial expression system assessed as residual binding level at 10 uM by Kinomescan method relative to control
[13] = molecular target: Glycogen synthase kinase-3 beta (Homo sapiens) (UniProt P49841); assay: Binding affinity to wild-type human full length GSK3B (M1 to T433 residues) expressed in mammalian expression system assessed as residual binding level at 10 uM by Kinomescan method relative to control
Sequence of Glycogen synthase kinase-3 beta (Homo sapiens) (P49841 whole entry, looked up, the tested form may be a part): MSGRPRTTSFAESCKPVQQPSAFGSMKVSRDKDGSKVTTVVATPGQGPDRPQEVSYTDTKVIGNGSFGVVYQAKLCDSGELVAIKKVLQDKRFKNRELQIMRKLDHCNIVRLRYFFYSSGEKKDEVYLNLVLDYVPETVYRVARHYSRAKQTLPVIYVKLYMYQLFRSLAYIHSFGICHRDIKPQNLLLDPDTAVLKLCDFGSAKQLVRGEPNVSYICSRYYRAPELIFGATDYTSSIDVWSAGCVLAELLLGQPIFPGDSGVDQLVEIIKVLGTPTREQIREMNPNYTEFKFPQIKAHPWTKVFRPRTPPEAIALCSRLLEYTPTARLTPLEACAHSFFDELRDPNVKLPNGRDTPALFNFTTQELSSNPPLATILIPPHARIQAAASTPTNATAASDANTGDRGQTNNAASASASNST

[14] = molecular target: Homeodomain-interacting protein kinase 4 (Homo sapiens) (UniProt Q8NE63); assay: Binding affinity to wild-type human partial length HIPK4 (M1 to V384 residues) expressed in bacterial expression system assessed as residual binding level at 10 uM by Kinomescan method relative to control
Sequence of Homeodomain-interacting protein kinase 4 (Homo sapiens) (Q8NE63 whole entry, the tested form may be a part): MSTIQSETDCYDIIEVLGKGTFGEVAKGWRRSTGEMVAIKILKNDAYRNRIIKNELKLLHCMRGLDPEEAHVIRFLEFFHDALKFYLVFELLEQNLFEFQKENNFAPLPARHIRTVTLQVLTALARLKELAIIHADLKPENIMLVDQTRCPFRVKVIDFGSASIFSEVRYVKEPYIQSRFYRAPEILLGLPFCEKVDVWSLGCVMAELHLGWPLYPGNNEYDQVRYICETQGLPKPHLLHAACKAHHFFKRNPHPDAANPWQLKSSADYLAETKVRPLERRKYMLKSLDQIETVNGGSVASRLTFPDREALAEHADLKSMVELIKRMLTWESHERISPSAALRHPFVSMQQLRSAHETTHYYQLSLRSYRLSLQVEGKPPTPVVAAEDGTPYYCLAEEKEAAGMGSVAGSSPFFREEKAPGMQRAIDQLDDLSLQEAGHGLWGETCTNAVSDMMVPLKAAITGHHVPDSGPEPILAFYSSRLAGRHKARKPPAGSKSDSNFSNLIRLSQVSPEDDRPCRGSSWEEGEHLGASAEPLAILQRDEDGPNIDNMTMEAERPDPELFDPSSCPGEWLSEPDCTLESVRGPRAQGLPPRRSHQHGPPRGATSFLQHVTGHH

[15] = molecular target: Tyrosine-protein kinase JAK1 (Homo sapiens) (UniProt P23458); assay: Binding affinity to wild-type human partial length JAK1 JH1 catalytic domain (V856 to K1154 residues) expressed in bacterial expression system assessed as residual binding level at 10 uM by Kinomescan method relative to control
[16] = molecular target: Serine/threonine-protein kinase LATS2 (Homo sapiens) (UniProt Q9NRM7); assay: Binding affinity to wild-type human partial length LATS2 (Q641 to V1088 residues) expressed in mammalian expression system assessed as residual binding level at 10 uM by Kinomescan method relative to control
Sequence of Serine/threonine-protein kinase LATS2 (Homo sapiens) (Q9NRM7 whole entry, the tested form may be a part): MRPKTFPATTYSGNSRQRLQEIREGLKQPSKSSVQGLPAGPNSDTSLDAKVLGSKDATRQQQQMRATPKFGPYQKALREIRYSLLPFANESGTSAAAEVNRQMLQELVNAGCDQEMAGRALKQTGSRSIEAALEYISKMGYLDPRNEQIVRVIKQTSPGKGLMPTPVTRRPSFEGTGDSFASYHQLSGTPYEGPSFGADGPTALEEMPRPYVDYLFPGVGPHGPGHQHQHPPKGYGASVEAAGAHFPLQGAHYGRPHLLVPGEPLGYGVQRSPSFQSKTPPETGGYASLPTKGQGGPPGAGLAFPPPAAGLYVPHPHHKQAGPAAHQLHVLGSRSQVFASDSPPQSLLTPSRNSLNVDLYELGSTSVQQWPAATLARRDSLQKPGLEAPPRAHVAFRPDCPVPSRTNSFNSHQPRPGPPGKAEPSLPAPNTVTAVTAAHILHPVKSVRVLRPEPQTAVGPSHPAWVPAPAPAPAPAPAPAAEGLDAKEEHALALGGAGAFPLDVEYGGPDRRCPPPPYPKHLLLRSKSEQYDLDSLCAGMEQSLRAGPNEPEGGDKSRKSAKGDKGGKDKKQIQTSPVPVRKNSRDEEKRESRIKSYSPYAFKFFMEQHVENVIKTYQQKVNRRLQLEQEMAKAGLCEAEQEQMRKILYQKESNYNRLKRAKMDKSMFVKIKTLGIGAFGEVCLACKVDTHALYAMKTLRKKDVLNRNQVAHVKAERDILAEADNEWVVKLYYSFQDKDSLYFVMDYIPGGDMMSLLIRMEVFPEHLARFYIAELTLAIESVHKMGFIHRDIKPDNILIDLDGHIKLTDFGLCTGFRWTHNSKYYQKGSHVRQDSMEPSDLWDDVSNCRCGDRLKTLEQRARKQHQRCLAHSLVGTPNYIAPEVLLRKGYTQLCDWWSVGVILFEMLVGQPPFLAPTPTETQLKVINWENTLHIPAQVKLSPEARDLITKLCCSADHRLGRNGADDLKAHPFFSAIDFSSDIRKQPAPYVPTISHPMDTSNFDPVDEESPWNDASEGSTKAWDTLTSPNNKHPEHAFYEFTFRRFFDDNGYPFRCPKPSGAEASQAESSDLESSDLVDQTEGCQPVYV

[17] = molecular target: Tyrosine-protein kinase Mer (Homo sapiens) (UniProt Q12866); assay: Binding affinity to wild-type human partial length MERTK (R557 to L884 residues) expressed in bacterial expression system assessed as residual binding level at 10 uM by Kinomescan method relative to control
Sequence of Tyrosine-protein kinase Mer (Homo sapiens) (Q12866 whole entry, the tested form may be a part): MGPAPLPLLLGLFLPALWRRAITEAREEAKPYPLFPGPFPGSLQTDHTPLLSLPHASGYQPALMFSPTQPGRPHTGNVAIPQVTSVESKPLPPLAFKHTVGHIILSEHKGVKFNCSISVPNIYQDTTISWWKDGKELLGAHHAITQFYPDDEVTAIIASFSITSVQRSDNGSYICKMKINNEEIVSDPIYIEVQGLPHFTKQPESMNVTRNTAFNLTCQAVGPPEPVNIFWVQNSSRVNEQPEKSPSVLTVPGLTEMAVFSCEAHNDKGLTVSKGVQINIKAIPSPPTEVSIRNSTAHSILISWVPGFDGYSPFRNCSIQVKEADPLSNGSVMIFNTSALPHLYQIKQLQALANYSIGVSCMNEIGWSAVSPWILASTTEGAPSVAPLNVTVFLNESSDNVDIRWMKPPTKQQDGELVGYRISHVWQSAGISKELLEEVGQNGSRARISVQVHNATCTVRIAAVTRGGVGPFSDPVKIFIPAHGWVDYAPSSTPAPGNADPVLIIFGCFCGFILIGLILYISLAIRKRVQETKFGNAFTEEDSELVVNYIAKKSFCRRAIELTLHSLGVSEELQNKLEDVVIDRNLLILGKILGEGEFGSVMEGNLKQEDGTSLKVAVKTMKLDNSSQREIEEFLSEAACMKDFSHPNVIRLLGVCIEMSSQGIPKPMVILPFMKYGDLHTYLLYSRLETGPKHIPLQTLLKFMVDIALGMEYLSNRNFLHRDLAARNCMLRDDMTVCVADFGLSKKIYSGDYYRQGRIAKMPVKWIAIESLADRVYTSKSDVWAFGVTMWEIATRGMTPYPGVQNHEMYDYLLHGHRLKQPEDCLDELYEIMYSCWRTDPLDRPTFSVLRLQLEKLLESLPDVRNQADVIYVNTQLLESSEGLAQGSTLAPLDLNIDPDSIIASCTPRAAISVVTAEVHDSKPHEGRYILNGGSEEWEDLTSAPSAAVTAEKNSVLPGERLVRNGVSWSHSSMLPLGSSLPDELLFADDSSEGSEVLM

[18] = system: Hepatocyte growth factor receptor (Homo sapiens), P08581 [M1250T]; assay: Binding affinity to human partial length MET M1250T mutant (D1010 to S1367 residues) expressed in bacterial expression system assessed as residual binding level at 10 uM by Kinomescan method relative to control
[19] = molecular target: Myosin light chain kinase family member 4 (Homo sapiens) (UniProt Q86YV6); assay: Binding affinity to wild-type human partial length MYLK4 (V79 to S380 residues) expressed in bacterial expression system assessed as residual binding level at 10 uM by Kinomescan method relative to control
[20] = molecular target: Phosphatidylinositol 3-kinase C2 domain-containing subunit gamma (Homo sapiens) (UniProt O75747); assay: Binding affinity to wild-type human partial length PIK3C2G (M1 to I1446 residues) expressed in mammalian expression system assessed as residual binding level at 10 uM by Kinomescan method relative to control
[21] = molecular target: Protein-tyrosine kinase 2-beta (Homo sapiens) (UniProt Q14289); assay: Binding affinity to wild-type human full length PYK2 (M1 to E967 residues) expressed in bacterial expression system assessed as residual binding level at 10 uM by Kinomescan method relative to control
[22] = molecular target: Uncharacterized serine/threonine-protein kinase SBK3 (Homo sapiens) (UniProt P0C264); assay: Binding affinity to wild-type human partial length SgK110 (L22 to R329 residues) expressed in bacterial expression system assessed as residual binding level at 10 uM by Kinomescan method relative to control
[23] = molecular target: Dual specificity testis-specific protein kinase 1 (Homo sapiens) (UniProt Q15569); assay: Binding affinity to wild-type human full length TESK1 (R37 to S626 residues) expressed in bacterial expression system assessed as residual binding level at 10 uM by Kinomescan method relative to control
[24] = molecular target: Tyrosine-protein kinase receptor TYRO3 (Homo sapiens) (UniProt Q06418); assay: Binding affinity to wild-type human partial length TYRO3 (S497 to T814 residues) expressed in bacterial expression system assessed as residual binding level at 10 uM by Kinomescan method relative to control

`O=C(Nc1cc(-c2cn(CCNc3c4c(nc5ccccc35)CCCC4)nn2)ccn1)Nc1cccc2c1C1CCCCN1C2=O` (racemic) gave an IC50 (Caco-2) of 3 µM, an Activity [1] of 100% and an Activity [2] of 47%. The Activity [3] was 78%, the Activity [4] was 0.5% and the Activity [5] was 66%. The Activity [6] was 1.4%, the Activity [7] was 0.1% and the Activity [8] was 80%. The Activity [9] was 76%, the Activity [10] was 67% and the Activity [11] was 57%. The Activity [12] was 1.6%, the Activity [13] was 17% and the Activity [14] was 84%. For the same molecule, the Activity [15] was 84%, the Activity [16] was 65% and the Activity [17] was 12%. It also gave an Activity [18] of 91%, an Activity [19] of 0% and an Activity [20] of 44%. It also gave an Activity [21] of 74%, an Activity [22] of 100% and an Activity [23] of 75%. It also gave an Activity [24] of 96%.
